Assay results: patent US11434222B2, “MAGL inhibitors” (H. LUNDBECK A/S, priority 2020, dated 2022)
Where two headings read alike, the source gives them in different places.

What was measured:
[1] = target: T1, MAGL (Mus musculus, UniProt O35678); test: In vivo MAGL inhibition in mouse brain proteomes after oral gavage; details: 5 mg/kg oral gavage, 4 h after administration, read-out: MAGL % inh. 5 mg/kg (mouse)
T1 construct: brain proteomes were prepared and analyzed according to previously established methods; from tissue; host or cells: brain of wild-type C57Bl/6J mice
T1 sequence (O35678 1-303): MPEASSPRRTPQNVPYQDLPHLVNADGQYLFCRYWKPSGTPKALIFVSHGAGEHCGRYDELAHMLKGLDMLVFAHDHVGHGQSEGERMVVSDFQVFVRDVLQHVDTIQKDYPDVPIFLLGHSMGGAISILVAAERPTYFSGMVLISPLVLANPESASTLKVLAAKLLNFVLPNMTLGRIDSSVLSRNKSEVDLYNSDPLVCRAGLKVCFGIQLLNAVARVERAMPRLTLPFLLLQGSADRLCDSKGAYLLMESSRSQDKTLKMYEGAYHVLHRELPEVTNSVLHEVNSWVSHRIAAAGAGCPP
Protocol: Inhibitors were administered to wild-type C57B1/6J by oral gavage in a vehicle of polyethylene glycol. Each animal was sacrificed 4 h following administration and brain proteomes were prepared and analyzed according to previously established methods (See Niphakis, M. J., et al. (2011) ACS Chem. Neurosci. and Long, J. Z., et al. Nat. Chem. Biol. 5:37-44).

[2] = Kinetic solubility in PBS; type: physicochemical; details: aqueous buffer, kinetic from dmso stock
Protocol: The kinetic solubility of test articles was determined in PBS at pH 2.0 and pH 7.4 in duplicate. A stock solution of test compound in DMSO (10 mM) was incubated at RT for 2 hours with shaking at 1,100 RPM. The sample was then filtered using a vacuum manifold, diluted, and analyzed by LC-MS/MS. Chromatographic conditions: Phenomenex Synergi 4μ Hydro-PR 80A column (2.0×30 mm) coupled with pre-guard column; mobile phase=0.1% formic acid in acetonitrile and 0.1% formic acid in water; flowrate=0.65 mL/min; column temperature=40° C.; injection volume: 3 μL.
Mass conditions: Turbo spray ion source; ESI ionization model; MRM scan type; Collison gas=6 L/min; Curtain gas=30 L/min; Nebulize gas=50 L/min; Auxiliary gas=50 L/min; Temperature=500 degrees C.; Ion spray voltage=+5500 v (positive MRM).
The filtered solution was analyzed and quantified against a standard of known concentration in DMSO using UPLC coupled with mass spectral peak identification and quantitation. Solubility values of the test articles were calculated using Microsoft Excel as follows (DF is the dilution factor): […]

[3] = In vitro human hepatocyte stability; type: in vitro ADME; details: cryopreserved human hepatocytes (pooled donor), human hepatocytes 0.5×10^6 cells/mL, read-out: Scaled-up unbound CLint
Protocol: The metabolic stability of test articles (1 μM) in commercially sourced, pooled donor, cryopreserved human hepatocytes (0.5×10^6 cells/mL) was determined in duplicate. The CLint reactions (250 μL) were initiated by addition of test compound. Aliquots (25 μL) were taken at 0, 15, 30, 45, 60, 90, 120 and 240 minutes and then protein crashed with ice-cold acetonitrile containing internal standard then centrifuged (3220 g for 25 minutes). Supernatant was used for LC-MS/MS analysis. The in vitro half-life (in vitro t1/2) was determined from the slope value: in vitro t1/2=−0.693/k. Conversion of the in vitro t1/2 (in min) into the scale-up unbound intrinsic clearance (Scaled-up unbound CLint, in mL/min/kg) was done using the following equation (mean of duplicate determinations), with data shown in Table 5: Scaled-up unbound CLint=kV/N×scaling factor. V=incubation volume (0.25 mL); N=number of hepatocytes per well ([…]). Scaling factors for in vivo intrinsic clearance prediction are listed below: […]

[4] = target: T2, MAGL (Homo sapiens, UniProt Q99685); test: In vitro competitive activity-based protein profiling (PC3 human cell membrane proteomes); type: biochemical
T2 construct: PC3 human cell membrane proteomes; endogenous in cells; host or cells: PC3 human cells (membrane proteome)
T2 sequence (Q99685 1-303): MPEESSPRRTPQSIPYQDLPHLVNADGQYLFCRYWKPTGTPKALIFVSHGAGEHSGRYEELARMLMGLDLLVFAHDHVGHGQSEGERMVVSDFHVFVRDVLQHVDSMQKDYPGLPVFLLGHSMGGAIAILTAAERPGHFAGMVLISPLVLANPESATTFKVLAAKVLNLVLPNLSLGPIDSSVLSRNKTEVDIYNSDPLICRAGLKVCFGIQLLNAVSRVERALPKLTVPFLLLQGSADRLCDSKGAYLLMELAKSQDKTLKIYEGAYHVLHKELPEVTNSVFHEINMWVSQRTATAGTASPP
Protocol: PC3 human cell membrane proteomes (50 µL, 2.0 mg/mL total protein concentration) were preincubated with varying concentrations of inhibitors at 37° C. After 30 min, the ABPP probe JW912-Bodipy (1.0 µL, 50 µM in DMSO) was added and the mixture was incubated for 30 min at room temperature. Reactions were quenched with SDS loading buffer (15 μL-4×) and run on SDS-PAGE. Following gel imaging, serine hydrolase activity was determined by measuring fluorescent intensity of gel bands corresponding to MAGL using ImageJ 1.43u software. Intensities were converted to percent enzyme activity by normalizing to DMSO controls. IC50 values were determined by fitting percent enzyme activities to a non-linear regression, 4-parameter, sigmoidal dose response function in Prism GraphPad.

[5] = PBS pH 7.4, RT, read-out: pH 7.4 Solubility (kinetic)
[6] = PBS pH 2.0, RT, read-out: pH 2 Solubility (kinetic)

| SMILES | inhibition at 5 mg/kg [1] | solubility kinetic at 2 h [2, 5] | CLint scaled at 1 μM [3] | solubility kinetic at 2 h [2, 6] | MAGL % inh. 1 µM (human PC3) [4] |
| --- | --- | --- | --- | --- | --- |
| CP(C)(=O)c1ccc(NC(=O)C2CC23CCN(C(=O)OC(C(F)(F)F)C(F)(F)F)CC3)cn1 (single isomer, unassigned) [Example 20, 1,1,1,3,3,3-hexafluoropropan-2-yl (R or S)-1-((6-(dimethylphosphoryl)pyridin-3-yl)carbamoyl)-6-azaspiro[2.5]octane-6-carboxylate] | 0% | 310 µM | 0.85 mL/min/kg |  |  |
| O=C(Nc1cncc(F)c1)C1CC12CCN(C(=O)OC(C(F)(F)F)C(F)(F)F)CC2 (single isomer, unassigned) [Example 40, 1,1,1,3,3,3-hexafluoropropan-2-yl (R or S)-1-((5-fluoropyridin-3-yl)carbamoyl)-6-azaspiro[2.5]octane-6-carboxylate] | 100% | 100 µM | 43.2 mL/min/kg | 163 µM | 100% |
| O=C(Nc1cncs1)C1CC12CCN(C(=O)OC(C(F)(F)F)C(F)(F)F)CC2 (single isomer, unassigned) [Example 129, 1,1,1,3,3,3-hexafluoropropan-2-yl (R or S)-1-(thiazol-5-ylcarbamoyl)-6-azaspiro[2.5]octane-6-carboxylate] | 50% |  | 53.6 mL/min/kg |  |  |
| Cn1ccc(NC(=O)C2CC23CCN(C(=O)OC(C(F)(F)F)C(F)(F)F)CC3)n1 (single isomer, unassigned) [Example 127, 1,1,1,3,3,3-hexafluoropropan-2-yl (R or S)-1-((1-methyl-1H-pyrazol-3-yl)carbamoyl)-6-azaspiro[2.5]octane-6-carboxylate] | 75% | 292 µM | 9.51 mL/min/kg | 275 µM |  |
| O=C(Nc1ccncc1)C1CC12CCN(C(=O)OC(C(F)(F)F)C(F)(F)F)CC2 (single isomer, unassigned) [Example 24, 1,1,1,3,3,3-hexafluoropropan-2-yl (R or S)-1-(pyridin-4-ylcarbamoyl)-6-azaspiro[2.5]octane-6-carboxylate] | 90% | 197 µM | 11.9 mL/min/kg |  |  |
| O=C(Nc1nccs1)C1CC12CCN(C(=O)OC(C(F)(F)F)C(F)(F)F)CC2 (single isomer, unassigned) [Example 138, 1,1,1,3,3,3-hexafluoropropan-2-yl (R or S)-1-(thiazol-2-ylcarbamoyl)-6-azaspiro[2.5]octane-6-carboxylate] | 75% |  | 40.5 mL/min/kg |  |  |
| O=C(NCC1CCOCC1)[C@H]1CC12CCN(C(=O)OC(C(F)(F)F)C(F)(F)F)CC2 (single isomer, unassigned) [Example 117] | 100% | 251 µM | 20.6 mL/min/kg |  |  |
| Cc1cnc(NC(=O)C2CC23CCN(C(=O)OC(C(F)(F)F)C(F)(F)F)CC3)cn1 (single isomer, unassigned) [Example 112, 1,1,1,3,3,3-hexafluoropropan-2-yl (R or S)-1-((5-methylpyrazin-2-yl)carbamoyl)-6-azaspiro[2.5]octane-6-carboxylate] | 75% | 109 µM | 9.59 mL/min/kg | 185 µM |  |
| O=C(Nc1cncnc1)C1CC12CCN(C(=O)OC(C(F)(F)F)C(F)(F)F)CC2 (single isomer, unassigned) [Example 96, 1,1,1,3,3,3-hexafluoropropan-2-yl (R or S)-1-(pyrimidin-5-ylcarbamoyl)-6-azaspiro[2.5]octane-6-carboxylate] | 100% | 237 µM | 17.1 mL/min/kg |  |  |
| Cn1nccc1NC(=O)C1CC12CCN(C(=O)OC(C(F)(F)F)C(F)(F)F)CC2 (single isomer, unassigned) [Example 135, 1,1,1,3,3,3-hexafluoropropan-2-yl (R or S)-1-((1-methyl-1H-pyrazol-5-yl)carbamoyl)-6-azaspiro[2.5]octane-6-carboxylate] | 100% |  | 16.8 mL/min/kg |  |  |
| CC1(NC(=O)C2CC23CCN(C(=O)OC(C(F)(F)F)C(F)(F)F)CC3)CCOCC1 (single isomer, unassigned) [Example 132, 1,1,1,3,3,3-hexafluoropropan-2-yl (R or S)-1-((4-methyltetrahydro-2H-pyran-4-yl)carbamoyl)-6-azaspiro[2.5]octane-6-carboxylate] | 100% |  | 44.2 mL/min/kg |  |  |
